Values after ≈ are worked out from the molar mass of the structure shown. Active and inactive are the calls of the source. The rule behind the calls is not given here.
Tests used:
[1] = Induction of strand scission activity in DNA assessed as relaxation of supercoiled DNA at 2.5 ug/ml; set-up: scale not given: the % may be the effect or the level left
[2] = Cytotoxicity against human 9KB cells; assay type: functional, cell-based
[3] = Induction of strand scission activity in DNA assessed as ratio of 2.5 uM drug-induced to bleomycin-induced relaxation of supercoiled DNA
[4] = Induction of strand scission activity in DNA assessed as relaxation of supercoiled DNA at 25 ug/ml; set-up: scale not given: the % may be the effect or the level left
[5] = Induction of strand scission activity in DNA assessed as ratio of 25 uM drug-induced to bleomycin-induced relaxation of supercoiled DNA

| SMILES | Activity [1] [%] | Activity [3] | Activity [4] | Activity [5] | IC50 [2] [µg/mL] |
| --- | --- | --- | --- | --- | --- |
| COc1cc2c(c(OC)c1OC)C(=O)/C(=C/c1ccc(O)c(O)c1)O2 | 83 | 10 |  |  | > 20 |
| COc1cc(O)c(C(=O)/C=C/c2ccc(O)c(O)c2)c(OC)c1OC [HAMILCONE] |  |  | 47% | 0.6 | 8 (≈ 23.1 µM) |
| COc1ccc([C@@H]2CC(=O)c3c(cc(OC)c(O)c3OC)O2)cc1 [HAMILTONE A] |  |  | 88% | 1.1 | > 20 |

Second part, led by results:

| Activity [1] [%] | Activity [3] | Activity [4] | Activity [5] | SMILES | IC50 [2] [µg/mL] |
| --- | --- | --- | --- | --- | --- |
|  |  | 76% | 1 | COc1cc2c(c(OC)c1OC)C(=O)CC(c1ccc(O)c(O)c1)O2 (racemic) [HAMILTONE B] | > 20 |
|  |  | inactive | inactive | O=C(OC[C@@]12C=C[C@@H](OC(=O)c3ccccc3)[C@@H](O)[C@H]1Cc1cc(O)ccc1O2)c1ccccc1 [HEMILXANTHENE] | 10 (≈ 21.2 µM) |

From ChEMBL document CHEMBL1158664, “New compounds with DNA strand-scission activity from the combined leaf and stem of Uvaria hamiltonii” (J Nat Prod, 1998)
